# Assay results reported in the supplement of paper PMC10307832.
# How the values were obtained:
# Assay in all cases: relative viability (nuclei count vs DMSO), 5 days (fraction); higher = more cells survive
# 201T = test system: 201T
# How it was run: (§1)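 Relative viability is defined as nuclei in treated wells over nuclei in vehicle wells. Duplicate plates were run and medians reported. Lung cancer cell lines in 1536-well plates were dosed by pin tool one day after seeding, with one drug or with a fixed anchor-drug dose plus five library-drug doses (not always all listed) in √10 steps, and nuclei were counted after 5 days.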
# BEN = test system: BEN
# How it was run: as §1
# CAL-12T = test system: CAL-12T
# How it was run: as §1
# HCC-827 = test system: HCC-827
# How it was run: as §1
# LCLC-103H = test system: LCLC-103H
# How it was run: as §1
# LCLC-97TM1 = test system: LCLC-97TM1
# How it was run: as §1
# LXF-289 = test system: LXF-289
# How it was run: as §1
# NCI-H1395 = test system: NCI-H1395
# How it was run: as §1
# NCI-H1437 = test system: NCI-H1437
# How it was run: as §1
# NCI-H1650 = test system: NCI-H1650
# How it was run: as §1
# NCI-H1792 = test system: NCI-H1792
# How it was run: as §1
# NCI-H1793 = test system: NCI-H1793
# How it was run: as §1
# NCI-H1944 = test system: NCI-H1944
# How it was run: as §1
# NCI-H2087 = test system: NCI-H2087
# How it was run: as §1
# NCI-H2228 = test system: NCI-H2228
# How it was run: as §1
# NCI-H2405 = test system: NCI-H2405
# How it was run: as §1
# NCI-H3122 = test system: NCI-H3122
# How it was run: as §1
# NCI-H322M = test system: NCI-H322M
# How it was run: as §1
# NCI-H647 = test system: NCI-H647
# How it was run: as §1
# NCI-H727 = test system: NCI-H727
# How it was run: as §1
# RERF-LC-KJ = test system: RERF-LC-KJ
# How it was run: as §1
# SK-LU-1 = test system: SK-LU-1
# How it was run: as §1
compound,measurement,setting,value
Nc1ccn([C@@H]2O[C@H](CO)[C@@H](O)[C@@H]2O)c(=O)n1 [Cytarabine] + CC(=O)c1c(C)c2cnc(Nc3ccc(N4CCNCC4)cn3)nc2n(C2CCCC2)c1=O [Palbociclib] (partner 0.5 µM),relative viability,201T; first compound 0.005 µM,0.369
same,relative viability,201T; first compound 0.01581 µM,0.335
same,relative viability,201T; first compound 0.05 µM,0.356
same,relative viability,201T; first compound 0.1581 µM,0.271
same,relative viability,201T; first compound 0.5 µM,0.31
same,relative viability,BEN; first compound 0.005 µM,0.481
same,relative viability,BEN; first compound 0.01581 µM,0.431
same,relative viability,BEN; first compound 0.05 µM,0.458
same,relative viability,BEN; first compound 0.1581 µM,0.377
same,relative viability,BEN; first compound 0.5 µM,0.286
same,relative viability,CAL-12T; first compound 0.005 µM,0.341
same,relative viability,CAL-12T; first compound 0.01581 µM,0.389
same,relative viability,CAL-12T; first compound 0.05 µM,0.421
same,relative viability,CAL-12T; first compound 0.1581 µM,0.193
same,relative viability,CAL-12T; first compound 0.5 µM,0.146
same,relative viability,HCC-827; first compound 0.005 µM,0.347
same,relative viability,HCC-827; first compound 0.01581 µM,0.317
same,relative viability,HCC-827; first compound 0.05 µM,0.19
same,relative viability,HCC-827; first compound 0.1581 µM,0.173
same,relative viability,HCC-827; first compound 0.5 µM,0.14
same,relative viability,LCLC-103H; first compound 0.005 µM,0.488
same,relative viability,LCLC-103H; first compound 0.01581 µM,0.429
same,relative viability,LCLC-103H; first compound 0.05 µM,0.498
same,relative viability,LCLC-103H; first compound 0.1581 µM,0.439
same,relative viability,LCLC-103H; first compound 0.5 µM,0.492
same,relative viability,LCLC-97TM1; first compound 0.005 µM,0.186
same,relative viability,LCLC-97TM1; first compound 0.01581 µM,0.135
same,relative viability,LCLC-97TM1; first compound 0.05 µM,0.198
same,relative viability,LCLC-97TM1; first compound 0.1581 µM,0.124
same,relative viability,LCLC-97TM1; first compound 0.5 µM,0.0884
same,relative viability,LXF-289; first compound 0.005 µM,0.49
same,relative viability,LXF-289; first compound 0.01581 µM,0.563
same,relative viability,LXF-289; first compound 0.05 µM,0.511
same,relative viability,LXF-289; first compound 0.1581 µM,0.296
same,relative viability,LXF-289; first compound 0.5 µM,0.287
same,relative viability,NCI-H1395; first compound 0.005 µM,0.599
same,relative viability,NCI-H1395; first compound 0.01581 µM,0.594
same,relative viability,NCI-H1395; first compound 0.05 µM,0.492
same,relative viability,NCI-H1395; first compound 0.1581 µM,0.406
same,relative viability,NCI-H1395; first compound 0.5 µM,0.345
same,relative viability,NCI-H1437; first compound 0.005 µM,0.284
same,relative viability,NCI-H1437; first compound 0.01581 µM,0.28
same,relative viability,NCI-H1437; first compound 0.05 µM,0.237
same,relative viability,NCI-H1437; first compound 0.1581 µM,0.192
same,relative viability,NCI-H1437; first compound 0.5 µM,0.196
same,relative viability,NCI-H1650; first compound 0.005 µM,0.317
same,relative viability,NCI-H1650; first compound 0.01581 µM,0.319
same,relative viability,NCI-H1650; first compound 0.05 µM,0.318
same,relative viability,NCI-H1650; first compound 0.1581 µM,0.163
same,relative viability,NCI-H1650; first compound 0.5 µM,0.186
same,relative viability,NCI-H1792; first compound 0.005 µM,0.853
same,relative viability,NCI-H1792; first compound 0.01581 µM,0.655
same,relative viability,NCI-H1792; first compound 0.05 µM,0.618
same,relative viability,NCI-H1792; first compound 0.1581 µM,0.508
same,relative viability,NCI-H1792; first compound 0.5 µM,0.468
same,relative viability,NCI-H1793; first compound 0.005 µM,0.341
same,relative viability,NCI-H1793; first compound 0.01581 µM,0.267
same,relative viability,NCI-H1793; first compound 0.05 µM,0.268
same,relative viability,NCI-H1793; first compound 0.1581 µM,0.228
same,relative viability,NCI-H1793; first compound 0.5 µM,0.262
same,relative viability,NCI-H1944; first compound 0.005 µM,0.283
same,relative viability,NCI-H1944; first compound 0.01581 µM,0.248
same,relative viability,NCI-H1944; first compound 0.05 µM,0.207
same,relative viability,NCI-H1944; first compound 0.1581 µM,0.205
same,relative viability,NCI-H1944; first compound 0.5 µM,0.16
same,relative viability,NCI-H2087; first compound 0.005 µM,0.23
same,relative viability,NCI-H2087; first compound 0.01581 µM,0.215
same,relative viability,NCI-H2087; first compound 0.05 µM,0.231
same,relative viability,NCI-H2087; first compound 0.1581 µM,0.167
same,relative viability,NCI-H2087; first compound 0.5 µM,0.205
same,relative viability,NCI-H2228; first compound 0.005 µM,0.445
same,relative viability,NCI-H2228; first compound 0.01581 µM,0.343
same,relative viability,NCI-H2228; first compound 0.05 µM,0.215
same,relative viability,NCI-H2228; first compound 0.1581 µM,0.131
same,relative viability,NCI-H2228; first compound 0.5 µM,0.116
same,relative viability,NCI-H2405; first compound 0.005 µM,0.518
same,relative viability,NCI-H2405; first compound 0.01581 µM,0.449
same,relative viability,NCI-H2405; first compound 0.05 µM,0.367
same,relative viability,NCI-H2405; first compound 0.1581 µM,0.275
same,relative viability,NCI-H2405; first compound 0.5 µM,0.234
same,relative viability,NCI-H3122; first compound 0.005 µM,0.188
same,relative viability,NCI-H3122; first compound 0.01581 µM,0.389
same,relative viability,NCI-H3122; first compound 0.05 µM,0.122
same,relative viability,NCI-H3122; first compound 0.1581 µM,0.126
same,relative viability,NCI-H3122; first compound 0.5 µM,0.113
same,relative viability,NCI-H322M; first compound 0.005 µM,0.414
same,relative viability,NCI-H322M; first compound 0.01581 µM,0.492
same,relative viability,NCI-H322M; first compound 0.05 µM,0.42
same,relative viability,NCI-H322M; first compound 0.1581 µM,0.385
same,relative viability,NCI-H322M; first compound 0.5 µM,0.383
same,relative viability,NCI-H647; first compound 0.005 µM,0.316
same,relative viability,NCI-H647; first compound 0.01581 µM,0.206
same,relative viability,NCI-H647; first compound 0.05 µM,0.207
same,relative viability,NCI-H647; first compound 0.1581 µM,0.0933
same,relative viability,NCI-H647; first compound 0.5 µM,0.0634
same,relative viability,NCI-H727; first compound 0.005 µM,0.613
same,relative viability,NCI-H727; first compound 0.01581 µM,0.556
same,relative viability,NCI-H727; first compound 0.05 µM,0.599
same,relative viability,NCI-H727; first compound 0.1581 µM,0.554
same,relative viability,NCI-H727; first compound 0.5 µM,0.505
same,relative viability,RERF-LC-KJ; first compound 0.005 µM,0.858
same,relative viability,RERF-LC-KJ; first compound 0.01581 µM,0.882
same,relative viability,RERF-LC-KJ; first compound 0.05 µM,0.819
same,relative viability,RERF-LC-KJ; first compound 0.1581 µM,0.517
same,relative viability,RERF-LC-KJ; first compound 0.5 µM,0.41
same,relative viability,SK-LU-1; first compound 0.005 µM,0.371
same,relative viability,SK-LU-1; first compound 0.01581 µM,0.419
same,relative viability,SK-LU-1; first compound 0.05 µM,0.271
same,relative viability,SK-LU-1; first compound 0.1581 µM,0.307
same,relative viability,SK-LU-1; first compound 0.5 µM,0.284
